{"source": "patent EP4682144A1", "about": "“SOLID FORM OF PYRROLIDONE DERIVATIVE AS GLUCOKINASE ACTIVATOR” (Hua Medicine (Shanghai) Ltd., priority 2023, dated 2024)", "format_in_all_cases": "physicochemical", "key": {"[1]": {"test": "Dissolution stability in different pH and biologically relevant media (XRPD before and after)", "conditions": "pH 1.0, 1.2, 3.0, 4.5, 5.0, 6.8, 7.0, 7.4, 9.0, FaSSGF (pH 1.6), FaSSIF (pH 6.5), FeSSIF (pH 5.0)"}, "[2]": {"test": "High-humidity stability test (90% RH, HPLC)", "excerpt": "(§1) The resulting sample was sampled at day 6, day 14 and day 34 for HPLC analysis."}, "[3]": {"test": "Dynamic vapour sorption (DVS) test", "procedure": "A certain amount of powder was taken and put into a sample pan, and hygroscopicity of the sample was evaluated with DVS according to the following instrument method:"}, "[4]": {"test": "Preliminary solubility test in solvents at room temperature", "conditions": "listed as crystal form A of the free state", "description": "Table 10 Solubility range of the starting material sample at room temperature\nThe solubility range in the corresponding solvent was calculated based on the mass of the sample and the volume of the added solvent, as shown in Table 28. The data were used as a base to guide the selection of solvent in screening tests. Table 28 Preliminary solubility of crystal form A of the free state at room temperature\nThe solubility range in the corresponding solvent was calculated based on the mass of the sample and the volume of the added solvent, as shown in Table 35. The data were used as a base to guide the selection of solvent in the screening tests."}, "[5]": {"test": "Forced degradation stability test (heat, humidity and heat, light)", "description": "Crystal form A of the free state was placed under the following different conditions for the forced degradation stability test: • About 10 mg of the sample powder was weighed into a vial and placed under the conditions of 50 °C, 80°C, and 40 °C/75%RH (unsealed) for 1 day, 2 weeks, and 4 weeks, respectively. And then, the thermal stability was evaluated. • About 10 mg of the sample powder was weighed and placed in a transparent vial, an amber vial, and a transparent vial sealed with aluminum foil, respectively. Those vials were placed in a light box for 10 days, with a total illumination of 1.2×10^6 Lux·hr and a near-UV energy not less than 200w·hr/m^2, for photostability evaluation.\nThe samples were taken at each time point for HPLC and XRPD analysis to evaluate the chemical and physical stability."}, "[6]": {"test": "Photostability test (direct sunlight, HPLC)", "excerpt": "The resulting sample was sampled at day 4 and day 15 for HPLC analysis."}, "[7]": {"test": "High-temperature stability test (60°C, HPLC)", "excerpt": "as §1"}}, "data": [{"compound": "CC(C)C[C@@H](C(=O)Nc1ccn(C[C@@H](O)COC(=O)c2cccnc2)n1)N1CC(Oc2ccccc2Cl)=CC1=O", "note": "[Free state crystal form A, (R)-3-(3-((S)-2-(4-(2-chlorophenoxy)-2-oxo-2,5-dihydro-1H-pyrrol-1-yl)-4-methylpentanamido)-1H-pyrazol-1-yl)-2-hydroxypropyl nicotinate]", "values": [{"measurement": "crystal form before and after solubility test (XRPD)", "setting": "[1]", "result": "does not change"}, {"measurement": "Purity (Area%)", "setting": "[2]; 0 hour", "result": 98.17, "unit": "Area%"}, {"measurement": "stability at high humidity", "setting": "[2]; 90% relative humidity for 14 days", "result": "still stable"}, {"measurement": "Purity (Area%)", "setting": "[2]; 90%RH, Day 6, without cover", "result": 98.99, "unit": "Area%"}, {"measurement": "Purity (Area%)", "setting": "[2]; 90%RH, Day 14, without cover", "result": 99.09, "unit": "Area%"}, {"measurement": "Water sorption capacity at 80%RH, %", "setting": "[3]; DVS, 25 °C, 80%RH", "result": 0.3556, "unit": "%"}, {"measurement": "Water sorption capacity at 90%RH, %", "setting": "[3]; DVS, 25 °C, 90%RH", "result": 0.4782, "unit": "%"}, {"measurement": "Water sorption capacity at 95%RH, %", "setting": "[3]; DVS, 25 °C, 95%RH", "result": 0.6525, "unit": "%"}, {"measurement": "moisture-induced weight gain", "setting": "[3]; relative humidity of 95%", "result": "less than 0.7%"}, {"measurement": "moisture-induced weight gain", "setting": "[3]; relative humidity of less than or equal to 90%, listed as crystal form A of the free state", "result": "less than 0.5%"}, {"measurement": "Solubility (mg/mL)", "setting": "[4]; 1,4-Dioxane, room temperature", "result": "S>40.0 mg/mL"}, {"measurement": "Solubility (mg/mL)", "setting": "[4]; Acetone, room temperature", "result": "S>40.0 mg/mL"}, {"measurement": "Solubility (mg/mL)", "setting": "[4]; CHCl3, room temperature", "result": "S>40.0 mg/mL"}, {"measurement": "Solubility (mg/mL)", "setting": "[4]; DCM, room temperature", "result": "S>40.0 mg/mL"}, {"measurement": "Solubility (mg/mL)", "setting": "[4]; DMAc, room temperature", "result": "S>40.0 mg/mL"}, {"measurement": "Solubility (mg/mL)", "setting": "[4]; DMSO, room temperature", "result": "S>42.0 mg/mL"}, {"measurement": "Solubility (mg/mL)", "setting": "[4]; H2O, room temperature", "result": "S<1.0 mg/mL"}, {"measurement": "Solubility (mg/mL)", "setting": "[4]; MTBE, room temperature", "result": "S<1.0 mg/mL"}, {"measurement": "Solubility (mg/mL)", "setting": "[4]; MeOH, room temperature (25±3 °C)", "result": "S>42.0 mg/mL"}, {"measurement": "Solubility (mg/mL)", "setting": "[4]; NMP, room temperature", "result": "S>40.0 mg/mL"}, {"measurement": "Solubility (mg/mL)", "setting": "[4]; THF, room temperature", "result": "S>40.0 mg/mL"}, {"measurement": "Solubility (mg/mL)", "setting": "[4]; Toluene, room temperature", "result": "S<1.0 mg/mL"}, {"measurement": "Solubility (mg/mL)", "setting": "[4]; n-Heptane, room temperature", "result": "S<1.1 mg/mL"}, {"measurement": "Purity, %", "setting": "[5]; 40°C/75%RH (unsealed), 2 weeks, HPLC", "result": 99.15, "unit": "%"}, {"measurement": "Purity, %", "setting": "[5]; 40°C/75%RH (unsealed), 4 weeks, HPLC", "result": 99.15, "unit": "%"}, {"measurement": "Purity, %", "setting": "[5]; 40°C/75%RH (unsealed), 24 hours, HPLC", "result": 99.09, "unit": "%"}, {"measurement": "Purity, %", "setting": "[5]; 50°C, 2 weeks, HPLC", "result": 99.10, "unit": "%"}, {"measurement": "Purity, %", "setting": "[5]; 50°C, 4 weeks, HPLC", "result": 99.11, "unit": "%"}, {"measurement": "high-temperature and humidity-thermal stability", "setting": "[5]; 50 °C, 80°C, 40 °C/75%RH (unsealed)", "result": "excellent"}, {"measurement": "crystalline form under forced degradation test conditions (XRPD)", "setting": "[5]; 50 °C, 80°C, 40 °C/75%RH for 1 day, 2 weeks, 4 weeks, light box 10 days", "result": "does not change"}, {"measurement": "Purity, %", "setting": "[5]; 50°C, 24 hours, HPLC", "result": 99.08, "unit": "%"}, {"measurement": "Purity, %", "setting": "[5]; 80°C, 2 weeks, HPLC", "result": 99.12, "unit": "%"}, {"measurement": "Purity, %", "setting": "[5]; 80°C, 4 weeks, HPLC", "result": 99.14, "unit": "%"}, {"measurement": "Purity, %", "setting": "[5]; 80°C, 24 hours, HPLC", "result": 99.12, "unit": "%"}, {"measurement": "Purity, %", "setting": "[5]; Light-amber vial, 10 days, light box, […]10^6 Lux·hr", "result": 99.17, "unit": "%"}, {"measurement": "Purity, %", "setting": "[5]; Light-transparent vial sealed with aluminum foil, 10 days, light box, […]10^6 Lux·hr", "result": 99.17, "unit": "%"}, {"measurement": "Purity, %", "setting": "[5]; Light-transparent vial, 10 days, light box, […]10^6 Lux·hr", "result": 99.10, "unit": "%"}, {"measurement": "Purity, %", "setting": "[5]; Starting, 0h, HPLC", "result": 99.10, "unit": "%"}, {"measurement": "effect of light on the stability", "setting": "[5]; light box 10 days, […]10^6 Lux·hr", "result": "no effect"}, {"measurement": "Purity (Area%)", "setting": "[6]; 0 hour", "result": 98.17, "unit": "Area%"}, {"measurement": "Purity (Area%)", "setting": "[6]; Photostability Day 4, direct sunlight", "result": 99.07, "unit": "Area%"}, {"measurement": "Purity (Area%)", "setting": "[6]; Photostability Day 15, direct sunlight", "result": 99.10, "unit": "Area%"}, {"measurement": "stability under sunlight", "setting": "[6]; sunlight for 15 days", "result": "still stable"}, {"measurement": "Purity (Area%)", "setting": "[7]; 0h", "result": 98.17, "unit": "Area%"}, {"measurement": "stability at high temperature", "setting": "[7]; 60°C for 14 days", "result": "still stable"}, {"measurement": "Purity (Area%)", "setting": "[7]; 60°C, Day 6, without cover", "result": 99.03, "unit": "Area%"}, {"measurement": "Purity (Area%)", "setting": "[7]; 60°C, Day 14, without cover", "result": 99.11, "unit": "Area%"}]}]}
